Measurements taken from US8933063B2, “Preparation of a crystalline antibiotic substance” (Leo Pharma A/S, priority 2005, dated 2015).

Assay: Stability assay: six month storage stability of polymorphic forms of fusidic acid (HPLC)
Type: physicochemical
Details: for HPLC-assay (% of origin) / Impurities total (%): after 6 month storage at 40° C., solid crystal form

| SMILES | HPLC-assay (% of origin) | Impurities total (%) | HPLC-assay (% of origin) (hemihydrate) | Impurities total (%) (hemihydrate) | Relative stability among known forms of fusidic acid (comparative six month standard stability study) |
| --- | --- | --- | --- | --- | --- |
| CC(=O)O[C@H]1C[C@@]2(C)[C@@H](C[C@@H](O)[C@H]3[C@@]4(C)CC[C@@H](O)[C@@H](C)[C@@H]4CC[C@@]32C)/C1=C(\CCC=C(C)C)C(=O)O [Fusidic acid form I from ES 2208110, Fusidic acid] | 98.2 % of origin | 1.0 |  |  |  |
| CC(=O)O[C@H]1C[C@@]2(C)[C@@H](C[C@@H](O)[C@H]3[C@@]4(C)CC[C@@H](O)[C@@H](C)[C@@H]4CC[C@@]32C)/C1=C(\CCC=C(C)C)C(=O)O [Fusidic acid form II from ES 2208110, Fusidic acid] | 88.2 % of origin | 5.2 |  |  |  |
| CC(=O)O[C@H]1C[C@@]2(C)[C@@H](C[C@@H](O)[C@H]3[C@@]4(C)CC[C@@H](O)[C@@H](C)[C@@H]4CC[C@@]32C)/C1=C(\CCC=C(C)C)C(=O)O [Fusidic acid hemihydrate] |  |  | 87.7 % of origin | 8.7 |  |
| CC(=O)O[C@H]1C[C@@]2(C)[C@@H](C[C@@H](O)[C@H]3[C@@]4(C)CC[C@@H](O)[C@@H](C)[C@@H]4CC[C@@]32C)/C1=C(\CCC=C(C)C)C(=O)O [Fusidic acid of the present invention, Fusidic acid] | 99.2 % of origin | 0.1 |  |  | most stable form |
